# Laboratory results as given in patent publication US20260317304A1, “TEAD INHIBITORS AND METHODS OF USE” (Sporos BioDiscovery, Inc., priority 2022, published 2026).
# System: NCI-H226 lung tumor model
# Assay: Mouse xenograft NCI-H226 tumors
# Type: in vivo, NOD SCID mice
# Description: This study evaluated the in vivo anti-tumor efficacy of test compounds in NOD SCID mice for treatment of NCI-H226 lung tumor model.
# • Species: Mus Musculus • Strain: NOD SCID • Age: 6-8 weeks • Sex: female • Body weight: 18-22 g • Number of animals inoculated with tumor: 69 mice • Number of animals enrolled in the treatment: 40 mice • Number of unenrolled animals: 29 mice • Animal supplier: Beijing Vital River Biotechnology Experimental Animal Co. Ltd Certification number: 20221110Abzz0619000681
# The NCI-H226 tumor cells were maintained in vitro in RPMI 1640 medium supplemented with 10% Fetal bovine serum and 1% Antibiotic-Antimycotic at 37° C. in an atmosphere of 5% CO2 in air. The tumor cells were routinely subcultured twice weekly by trypsin-EDTA. The cells growing in an exponential growth phase were harvested and counted for tumor inoculation.
# Each mouse was inoculated subcutaneously at the right flank with NCI-H226 tumor cells (10×10^6+50% matrigel/0.2 mL) for tumor development. Animals were marked with earrings with unique 6 significant figure number for identification. The treatments were started when the average tumor volume reached an average size of 154 mm^3.
# The major endpoint was to determine if the tumor growth could be delayed or mice could be cured. Tumor volume was measured twice a week in two dimensions using a caliper, and the volume was expressed in mm^3 using the formula: V=0.5 a×b^2 where a and b are the long and short diameters of the tumor, respectively. The tumor size was then used for calculations of T/C value. The TGI value (in percent) or the T/C value (in percent) is an indication of antitumor effectiveness; T and C are the mean tumor volumes or tumor weights of the treated and control groups, respectively, on a given day.
# TGI was calculated for each group using the formula: TGI (%)=[1−(Ti−T0)/(Vi−V0)]×100; Ti is the average tumor volume of a treatment group on a given day, T0 is the average tumor volume of the treatment group on the day of treatment start, Vi is the average tumor volume of the vehicle control group on the same day with T1, and V0 is the average tumor volume of the vehicle group on the day of treatment start.
# Relative T/C (%)=TRTV/CRTV×100 (RTV (%)=Vt/V0×100, Vt is the average tumor volume on a given day, V0 is the average tumor volume on the first day of treatment. TRTV is the RTV of a treatment group, and the CRTV is the RTV of the vehicle control group.)
# Tumor weight was measured at the study termination. The Tweight/Cweight value (in percent) was calculated according to the formula: Tweight/Cweight (%)=TWtreatment/TWvehicle×100, where T and C are the mean tumor weights of the treatment and control groups respectively
# Summary statistics, including mean and the standard error of the mean (SEM), were provided for the tumor volume of each group at each time point.
# Statistical analysis of difference in tumor volume among the groups was conducted on the data obtained at the end of the study.
# One-tailed T test was performed to compare tumor volumes between two groups. All data were analyzed using GraphPad Prism 6.0. p<0.05 is considered to be statistically significant.
# The antitumor effectiveness of the study was analyzed on PG-D28 when vehicle group reached 472 mm^3.
compound,measurement,setting,value
"Cn1cnc(-c2cc([C@@]3(C)CCNC3=O)ccc2Nc2ccc(C(F)(F)F)cc2)c1 (single isomer, unassigned) [Compound 5, 3-methyl-3-(3-(1-methyl-1H-imidazol-4-yl)-4-((4-(trifluoromethyl)phenyl)amino)phenyl)pyrrolidin-2-one]",Tumor size (mean ± SEM),"day 0, 5 mg/kg, PO BID",154 ± 13 mm^3
same,Tumor size (mean ± SEM),"day 0, 15 mg/kg, PO BID",154 ± 15 mm^3
same,Tumor size (mean ± SEM),"day 0, 15 mg/kg, PO QD",154 ± 15 mm^3
same,Tumor size (mean ± SEM),"day 4, 5 mg/kg, PO BID",140 ± 10 mm^3
same,Tumor size (mean ± SEM),"day 4, 15 mg/kg, PO BID",127 ± 14 mm^3
same,Tumor size (mean ± SEM),"day 4, 15 mg/kg, PO QD",153 ± 11 mm^3
same,Tumor size (mean ± SEM),"day 7, 5 mg/kg, PO BID",129 ± 5 mm^3
same,Tumor size (mean ± SEM),"day 7, 15 mg/kg, PO BID",115 ± 12 mm^3
same,Tumor size (mean ± SEM),"day 7, 15 mg/kg, PO QD",149 ± 11 mm^3
same,Tumor size (mean ± SEM),"day 10, 5 mg/kg, PO BID",124 ± 6 mm^3
same,Tumor size (mean ± SEM),"day 10, 15 mg/kg, PO BID",110 ± 10 mm^3
same,Tumor size (mean ± SEM),"day 10, 15 mg/kg, PO QD",148 ± 12 mm^3
same,Tumor size (mean ± SEM),"day 13, 5 mg/kg, PO BID",82 ± 8 mm^3
same,Tumor size (mean ± SEM),"day 13, 15 mg/kg, PO BID",84 ± 8 mm^3
same,Tumor size (mean ± SEM),"day 13, 15 mg/kg, PO QD",116 ± 26 mm^3
same,Tumor size (mean ± SEM),"day 17, 5 mg/kg, PO BID",77 ± 7 mm^3
same,Tumor size (mean ± SEM),"day 17, 15 mg/kg, PO BID",62 ± 6 mm^3
same,Tumor size (mean ± SEM),"day 17, 15 mg/kg, PO QD",94 ± 15 mm^3
same,Tumor size (mean ± SEM),"day 20, 5 mg/kg, PO BID",73 ± 6 mm^3
same,Tumor size (mean ± SEM),"day 20, 15 mg/kg, PO BID",63 ± 7 mm^3
same,Tumor size (mean ± SEM),"day 20, 15 mg/kg, PO QD",95 ± 16 mm^3
same,Tumor size (mean ± SEM),"day 24, 5 mg/kg, PO BID",55 ± 4 mm^3
same,Tumor size (mean ± SEM),"day 24, 15 mg/kg, PO BID",49 ± 4 mm^3
same,Tumor size (mean ± SEM),"day 24, 15 mg/kg, PO QD",85 ± 8 mm^3
same,T/C,"day 28, 5 mg/kg, PO BID",11.2%
same,TGI,"day 28, 5 mg/kg, PO BID",131.3%
same,Tumor size (mean ± SEM),"day 28, 5 mg/kg, PO BID",53 ± 5 mm^3
same,Tumor Volume (mean ± SEM),"day 28, 5 mg/kg, PO BID (Table 20)",53 ± 5 mm^3
same,T/C,"day 28, 15 mg/kg, PO BID",9.0%
same,TGI,"day 28, 15 mg/kg, PO BID",134.2%
same,Tumor size (mean ± SEM),"day 28, 15 mg/kg, PO BID",43 ± 6 mm^3
same,Tumor Volume (mean ± SEM),"day 28, 15 mg/kg, PO BID (Table 20)",43 ± 6 mm^3
same,T/C,"day 28, 15 mg/kg, PO QD",17.0%
same,TGI,"day 28, 15 mg/kg, PO QD",122.3%
same,Tumor size (mean ± SEM),"day 28, 15 mg/kg, PO QD",82 ± 12 mm^3
same,Tumor Volume (mean ± SEM),"day 28, 15 mg/kg, PO QD (Table 20)",82 ± 12 mm^3
